How the values were obtained:
AdipoRs = experiment: Competitive radio-ligand binding assay with 125I-adiponectin on C2C12 myotubes; parameters: species or system mouse; details: 10^-11 M to 10^-6 M unlabeled ULMA, 12 hours, 4° C.
Experimental: C. ULMA competes with ^125I-globular adiponectin (gAd) for binding to AdipoRs. C2C12 myotubes in 12 well plates were incubated with 2 μl of 10 uCi/ml ^125I-adiponectin (this amount gives 50% binding to the cells) in ice-cold PBS and 0.1% bovine serum albumin for 12 h in presence or absence of different doses of unlabeled ULMA (10^−11M, 10^−10 M, 10^−9 M, 10^−8 M, 10^−7M, 10^−6M) at 4° C. The cells were then washed 20 times in PBS and then lysed. 5 μl of the lysate was used for protein estimation using standard Bradford assay and rest of the lysate was used for measuring radioactivity in a gamma-counter (Cole Palmer). The count per minute was normalized with protein concentration and plotted as % binding compared to wells treated with vehicle only (0.1% vol/vol DMSO). Data represents mean±SEM from three experiments performed in triplicates.
Competitive Radio-Ligand Binding Assay
Further validation of AdipoR-ULMA interaction was obtained using a competitive radio-ligand binding assay. […] 5 μl of the lysate was used for protein estimation using standard Bradford assay and rest of the lysate was used for measuring radioactivity in a gamma-counter (Cole Palmer). […]

C2C12 myotubes = experiment: QRT-PCR of fatty acid transport, oxidation, mitochondrial biogenesis genes in C2C12 myotubes; format: cell-based, mouse; details: 10 nM, 12 or 24 hours
Experimental: A. ULMA induces expression of fatty acid transport, oxidation, mitochondrial biogenesis and energy dissipation related genes. C2C12 myotubes in 6 well plates were treated with 10 nM ULMA or vehicle (designated as 0 h; 0.1% vol/vol DMSO) for 12 h or 24 h. Following treatment, RNA was extracted and 1 μg RNA from each well was used to prepare cDNA and the cDNAs were then used for quantitative real-time PCR for indicated genes. Beta-actin was used as normalizing control. The relative mRNA level was quantitated using ddCT method and plotted as fold activity over vehicle treated control (0 h). Data is mean±SEM of 4-6 independent experiments performed in triplicates. *p<0.05, **p<0.01, ***p<0.001 compared to vehicle (DMSO) treated controls as determined by two tailed unpaired student's t-test.
Adiponectin enhances transcription of genes regulating fatty acid transport, fatty acid-oxidation and mitochondrial uncoupling proteins in skeletal muscle and myotubes (T. Kadowaki, T. Yamauchi, N. Kubota, K. Hara, K. Ueki, K. Tobe. J Clin Invest. 116(7): 1784-92. 2006; S. Dridi, M. Taouis. Journal of Nutritional Biochemistry 20 (2009): 831-839. 2009; M. Iwabu, T. Yamauchi, M. Okada-Iwabu, K. Sato, T. Nakagawa, M. Funata, M. Yamaguchi, S. Namiki, R. Nakayama, M. Tabata, H. Ogata, N. Kubota, I. Takamoto, Y. K. Hayashi, N. Yamauchi, H. Waki, M. Fukayama, I. Nishino, K. Tokuyama, K. Ueki, Y. Oike, S. Ishii, K. Hirose, T. Shimizu, K. Touhara, T. Kadowaki. Nature; 464(7293):1313-1319. 2010). The ability of ULMA to influence expression of these genes were checked in c2c12 myotubes. C2C12 myotubes in 6 well plates were treated with 10 nM ULMA or vehicle (DMSO) for 12 hours or 24 hours. Following treatment, the cells were washed with ice-cold PBS and RNA was extracted using Trizol (Ambion) according to manufacturer's instructions. The RNAs were quantitated using a spectrophotometer (nanophotometer; Implen GMBH) and 1 μg RNA was used to prepare cDNA using a cDNA synthesis kit (Applied Biosystems). cDNAs were then used for quantitative real-time PCR for indicated genes (FIG. 3A) using Veriquest SYBR green QRT-PCR mastermix (US Biologicals) and a Roche lightcycler 480 thermal cycler (Roche Diagnostics). Beta-actin was used as normalizing control. The relative mRNA level was quantitated using ddCT method. […] Adiponectin is also known to induce muscle and adipose glucose transporter 4 (GLUT4) expressions; and the ability of ULMA to induce the expression of GLUT4, PPAR and PGC-1α was investigated by western blotting. C2C12 myotubes in 10 cm dish were treated with vehicle (DMSO) or 10 nM ULMA in DMSO for 24 hours or 48 hours followed by western blotting as described [S. K. Dwivedi, N. Singh, R. Kumari, J. S. Mishra, S. Tripathi, P. Banerjee, P. Shah, V. Kukshal, A. M. Tyagi, A. N. Gaikwad, R. K. Chaturvedi, D. P. Mishra, A. K. Trivedi, S. Sanyal, N. Chattopadhyay, R. Ramachandran, M. I. Siddiqi, A. Bandyopadhyay, A. Arora, T. Lundasen, S. P. Anakk, D. D. Moore, S. Sanyal. Mol Endocrinol. 25(6): 922-932. 2011).

## O=C1c2c(cc(O)c([C@@H]3O[C@H](CO)[C@@H](O)[C@H](O)[C@H]3O)c2O)O[C@@H](c2ccc(O)c(O)c2)[C@@H]1O [ULMA, (2S,3S)-(+)-3′,4′,5,7-tetrahydroxydihydroflavonol-6-C-β-D-glucopyranoside]
AdipoRs
  displacement of 125I-adiponectin binding by cold ULMA: dose-dependently replaced 125I-adiponectin binding
C2C12 myotubes
  ACOX1 mRNA expression: enhanced expressions
  CD36 mRNA expression: induced expression
  CPT1B mRNA expression: enhanced expressions
  FABP3 mRNA expression: induced expression
  PGC-1α mRNA expression: induced expression
  PPARα mRNA expression: induced expression
  fatty acyl CoA synthetase mRNA expression: enhanced expressions
  uncoupling protein 2 mRNA expression: induced expressions
  uncoupling protein 3 mRNA expression: induced expressions
